From patent US6133311A, “Method for preventing or treating elevated blood lipid level-related diseases by administering natural phenolic compounds” (priority 1998, dated 2000)

Assays:
[1] = system: main artery (arterial endothelium); assay: analysis for fatty streak in the main artery of rabbits; assay type: in vivo, New Zealand White rabbits; conditions: for Fatty streak (proportion of stained region to total arterial area): 1% cholesterol diet plus 0.1% compound (Lovastatin 1 mg/kg), Control 35 ± 14; for Fatty streak (proportion of stained region to total arterial area) / plaque formation in the endothelium of the main artery: 6 weeks; for deposition of macrophages on the arterial endothelium: blood cholesterol level high
Procedure: 30 three-month-old male New Zealand White rabbits (Yeonam Horticulture and Animal Husbandry College, Korea), each weighing about 2.5 to 2.6 kg, were raised under a condition of temperature 20+2° C., relative humidity 55±5%, and photoperiod 12L/12D. The rabbits were divided into 5 groups and 5 groups of rabbits were fed with 5 different diets, i.e., RC4 diet (Oriental Yeast Co., Japan) containing 1% cholesterol (Control group, 1); 1% cholesterol plus 1 mg/kg Lovastatin® (Merck, U.S.A.) (Lovastatin® group, 2); 1% cholesterol plus 0.1% tannin (3); 1% cholesterol plus 0.1% gallic acid (4); and 1% cholesterol plus 0.1% ellagic acid (5), respectively. RC4 diet comprises 7.6% moisture, 22.8% crude protein, 2.8% crude fat, 8.8% crude ash, 14.4% crude cellulose and 43.6% soluble nitrogen-free substances. Tannin, gallic acid and ellagic acid were purchased from Sigma Chemical Co. (St. Louis, Mo.).
The rabbits were fed for 6 weeks while being allowed free access to the diets and water.
(Step 3) Analysis for fatty streak in the main artery
The chest of each of the rabbits sacrificed in Step 2 was incised. The downward portion of the main artery from the site 1 cm above the aortic valve was cut out in a length of about 5 cm and the fat surrounding the main artery was removed. The main artery was incised in the middle along the longitudinal axis and pinned to a dish. The moist artery was photographed and, then, the staining of fatty streaks was carried out in accordance with the method of Esper, E., et al. (J. Lab. Clin. Med., 121, 103-110 (1993)) as follows.
A part of the incised main artery was washed three times with anhydrous propylene glycol for 2 min. and stained for 30 min. with a saturated solution of Oil Red O (ORO, Sigma Co.) dissolved in propylene glycol. Thereafter, the artery was washed twice with 85% propylene glycol for 3 min. to remove remaining staining solution and, then washed with physiological saline. The artery was photographed and the photograph was traced. The area of stained region (fatty streak region) was determined with an image analyzer (LEICA, Q-600, Germany) and its proportion (%) to the total arterial area was calculated.
FIGS. 1A, 1B and 1C show the arteries of the rabbits administered with 1% cholesterol (Control group); 1% cholesterol plus 1 mg/kg Lovastatin® (Lovastatin® group); 1% cholesterol plus 0.1% ellagic acid, respectively.

[2] = plasma cholesterol, HDL-cholesterol and neutral lipid levels in rats fed a high-cholesterol diet; assay type: in vivo, Sprague-Dawley rats; conditions: six weeks; for HDL-C/Total-C ratio higher than in the control group / neutral lipid content lower than in the Control group / total plasma cholesterol level lower than in the Control group: 0.1% in diet; for HDL-C / Total-C / HDL-C (HDL-cholesterol) / TG (triglyceride) / Total-C (total cholesterol): 1% cholesterol plus 0.1% compound in diet; for HDL-C / Total-C: Control 28; for HDL-C (HDL-cholesterol): Control 38 ± 2; for TG (triglyceride): Control 98 ± 5; for Total-C (total cholesterol): Control 135 ± 6
Source text: Effect of Tannin, Gallic acid or Ellagic acid on Plasma Cholesterol, HDL-Cholesterol and Neutral Lipid Levels
(Step 1) Administration of tannin or gallic acid to rats
30 three-week-old white Sprague-Dawley rats (Taihan laboratory animal center, Korea), each weighing about 90 to 110 g, were evenly divided into three dietary groups by a randomized block design. The rats of the three groups were fed with three different high-cholesterol diets, i.e., AIN-76 laboratory animal diet (ICN Biochemicals, Cleveland, Ohio, U.S.A.) containing 1% cholesterol (Control group), 1% cholesterol plus 0.1% tannin group (tannin group) and 1% cholesterol plus 0.1% gallic acid, respectively.
The rats were allowed to feed freely on the specified diet together with water for six weeks, the ingestion amount was recorded daily and the rats were weighed every 7 days, and then the record was analyzed.
(Step 2) Determination of total cholesterol, HDL-cholesterol and neutral lipid content in blood
The effects of administering tannin or gallic acid to rats on the plasma cholesterol and neutral lipid contents were determined as follows.
The rats of the three dietary groups obtained in Step 1 were sacrificed and blood samples were taken therefrom. The blood was allowed to stand for 2 hours and centrifuged at 3,000 rpm for 15 minutes and the supernatant was separated and stored in a deep freezer before use. The chemical analysis of blood was carried out by employing a blood chemical analyzer (CIBA Corning 550 Express, USA) to determine the changes in total cholesterol, HDL-cholesterol and triglyceride levels.

Compound | Fatty streak (proportion of stained region to total arterial area) [1] | plaque formation in the endothelium of the main artery [1] | deposition of macrophages on the arterial endothelium [1] | HDL-C/Total-C ratio higher than in the control group [2] | neutral lipid content lower than in the Control group [2] | total plasma cholesterol level lower than in the Control group [2] | HDL-C / Total-C [2] | HDL-C (HDL-cholesterol) [2] | TG (triglyceride) [2] | Total-C (total cholesterol) [2]
O=C(O)c1cc(O)c(O)c(O)c1 [Gallic acid, gallic acid] | 10 ± 2% | inhibit | strongly inhibit | 21% | 22% | 31% | 34% | 32 ± 3 mg/dL | 77 ± 4 mg/dL | 93 ± 5 mg/dL
tannin | 13 ± 2% | inhibit | strongly inhibit | 54% | 21% | 35% | 43% | 37 ± 2 mg/dL | 76 ± 3 mg/dL | 88 ± 4 mg/dL
